In patent US10035814B2, “Guanine analogs as telomerase substrates and telomere length affectors” (Geron Corporation, priority 2011, dated 2018):
“And” between values parts separate entries of the source, which are not always exact repeats. Identical values can stand only once.

How the values were obtained:
telomerase [1] = target: T1, telomerase (Homo sapiens (Human), UniProt O14746); test: Flash plate (Flashplate) telomerase assay; assay type: biochemical; details: affinity purified telomerase extract, 20 μM dGTP; read-out: Flashplate IC 50
Procedure: Determining IC50 for PMPGpp, (R)-PMPGpp and (S)-PMPGpp. Telomerase activity was determined using the “flash-plate” assay with concentrations of PMPGpp ranging from 0.05 μM to 50 μM.
Compound was pre-incubated with affinity purified telomerase extract, 100 nM primer [5′ biotin-d(AATCCGTCGAGCAGAGTT)] (SEQ ID NO: 4), 120 μM dTTP, 20 μM dGTP, […], in a buffer containing 50 mM Tris-Acetate (pH 8.2), 1 mM MgCl2, 1 mM DTT, 0.5 mM EGTA and 150 mM KOAc, 5.4 nM ^33P-labeled [d([…])] (SEQ ID NO: 5 (6×10^9 cpm/nmol) in a final reaction volume of 30 μl. Incubations were done for 90 min at 37° C. Following stoppage of the reaction with EDTA (10 mM), the reaction products were captured in a streptavidin coated 96 well FlashPlate. After a 2 hr capture period for the primer, the plates were washed five times (2×SSC, 0.1% SDS, 10 mM EDTA) and counted.
Compound was pre-incubated with affinity purified telomerase extract, 100 nM primer [5′ biotin-d(AATCCGTCGAGCAGAGTT)] (SEQ ID NO: 4), 120 μM dTTP, 20 μM dGTP, 10 μM dATP, in a buffer containing 50 mM Tris-Acetate (pH 8.2), 1 mM MgCl2, 1 mM DTT, 0.5 mM EGTA and 150 mM KOAc, 5.4 nM ^33P-labeled [d([…])] […]

telomerase [2] = target: T1, telomerase; test: Primer extension assay for telomerase activity; assay type: biochemical; details: for IC50: purified telomerase, dGTP 50 μM
Procedure: Purified human telomerase was incubated with d(TTAGGG)3 (SEQ ID NO: 1) and deoxy-nucleoside triphosphates for 90 minutes at 37° C. All reactions were done in the presence of 200 dTTP and 10 μM dATP (50,000 cpm/pmol a-^33P-dATP). Activity was determined by incubating affinity purified telomerase extract with 1 μM primer [d(TTAGGG)3] (SEQ ID NO: 1), 200 μM dTTP, 50 μM dGTP, 10 μM dATP, 10 μCi [α-^33P]dATP (2000-4000 Ci/mmol) in a buffer containing 50 mM (N-2-hydroxyethyl piperazine-N′-3 propanesulfonic acid)-NaOH pH 8.5, 1 mM MgCl2, 1 mM DTT, 5% glycerol, 0.5 mM EGTA and 100 mM KOAc in a final reaction volume of 40 μl. Primer extension products were analyzed on a 15% polyacrylamide gel containing 7 M urea. A characteristic telomerase ladder has multiple bands. If a compound is not a substrate then (TTAGGG)3TTA (21 nt) (SEQ ID NO: 2). If a compound is a chain terminator then (TTAGGG)3TTAG* (22 nt) (SEQ ID NO: 3).
Purified human telomerase was incubated with d(TTAGGG)3 (SEQ ID NO: 1) and deoxy-nucleoside triphosphates for 90 minutes at 37° C. All reactions were done in the presence of 200 dTTP and 10 μM dATP (50,000 cpm/pmol a-^33P-dATP). Activity was determined by incubating affinity purified telomerase extract with […] primer [d(TTAGGG)3] (SEQ ID NO: 1), […] [α-^33P]dATP (2000-4000 Ci/mmol) in a buffer containing 50 mM (N-2-hydroxyethyl piperazine-N′-3 propanesulfonic acid)-NaOH pH 8.5, 1 mM MgCl2, 1 mM DTT, 5% glycerol, 0.5 mM EGTA and 100 mM KOAc in a final reaction volume of 40 μl. Primer extension products were analyzed on a 15% polyacrylamide gel containing 7 M urea. A characteristic telomerase ladder has multiple bands. If a compound is not a substrate then (TTAGGG)3TTA (21 nt) (SEQ ID NO: 2). If a compound is a chain terminator then (TTAGGG)3TTAG* (22 nt) (SEQ ID NO: 3).

T1 sequence (O14746 whole entry): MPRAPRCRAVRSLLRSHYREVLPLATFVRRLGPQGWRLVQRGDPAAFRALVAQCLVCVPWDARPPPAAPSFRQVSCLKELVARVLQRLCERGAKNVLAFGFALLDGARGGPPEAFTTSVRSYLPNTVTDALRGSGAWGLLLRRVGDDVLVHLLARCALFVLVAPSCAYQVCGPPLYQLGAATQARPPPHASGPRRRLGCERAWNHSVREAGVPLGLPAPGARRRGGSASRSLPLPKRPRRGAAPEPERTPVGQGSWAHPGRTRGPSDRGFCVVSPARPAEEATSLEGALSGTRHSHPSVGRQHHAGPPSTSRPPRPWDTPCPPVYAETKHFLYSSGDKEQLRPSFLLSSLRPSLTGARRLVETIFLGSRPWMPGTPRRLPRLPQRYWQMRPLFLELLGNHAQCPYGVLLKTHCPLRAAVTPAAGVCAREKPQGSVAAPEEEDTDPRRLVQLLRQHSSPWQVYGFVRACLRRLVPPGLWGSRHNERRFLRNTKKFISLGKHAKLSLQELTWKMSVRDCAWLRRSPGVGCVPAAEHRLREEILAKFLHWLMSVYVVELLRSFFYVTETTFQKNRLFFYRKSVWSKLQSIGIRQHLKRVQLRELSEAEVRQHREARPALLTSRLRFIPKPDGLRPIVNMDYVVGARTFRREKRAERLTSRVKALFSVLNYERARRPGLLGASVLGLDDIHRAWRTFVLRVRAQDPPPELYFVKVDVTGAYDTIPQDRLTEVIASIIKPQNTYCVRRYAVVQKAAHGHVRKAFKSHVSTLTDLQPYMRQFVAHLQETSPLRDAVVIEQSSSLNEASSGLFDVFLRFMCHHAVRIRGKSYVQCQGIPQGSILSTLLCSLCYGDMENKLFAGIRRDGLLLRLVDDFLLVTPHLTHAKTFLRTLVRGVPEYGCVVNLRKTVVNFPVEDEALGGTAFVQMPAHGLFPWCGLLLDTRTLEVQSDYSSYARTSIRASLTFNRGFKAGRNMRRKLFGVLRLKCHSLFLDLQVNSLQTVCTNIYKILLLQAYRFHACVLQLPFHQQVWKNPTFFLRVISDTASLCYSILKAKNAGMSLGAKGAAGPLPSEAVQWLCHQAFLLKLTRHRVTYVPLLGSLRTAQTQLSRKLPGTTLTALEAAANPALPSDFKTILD

IC50 (telomerase [1]) [nM]	Primer Ext. Assay Notes: telomerase substrate / chain terminator (telomerase [2]; listed as PMPGpp)	Primer Ext. Assay Notes: telomerase substrate / chain terminator (telomerase [2]; listed as R-PMPGpp)	IC50 (telomerase [2])	Structure (SMILES)
1000	acts as a chain terminator	resulting in chain termination	~1000 nM and 1000 nM	CC(Cn1cnc2c(=O)[nH]c(N)nc21)OCP(=O)(O)OP(=O)(O)OP(=O)(O)O (single isomer, unassigned) [ID#142692]
14100	–	–	13500 nM	CC(Cn1cnc2c(=O)[nH]c(N)nc21)OCP(=O)(O)OP(=O)(O)OP(=O)(O)O (single isomer, unassigned) [ID#142751, PMPG free acid, S form]
